Test results: patent publication US9028856B2, “Synergistic pesticide compositions” (priority 2008, dated 2015)

Assays:
[1] = type: physicochemical; details: classified from Log P
[2] = test system: Musca domestica, susceptible strain WHO(N); experiment: Efficacy of formulations on surfaces (glazed/unglazed tiles), house flies, continuous exposure; type: in vivo; details: for % KD and Mortality 15′ / % KD and Mortality 30′ / % KD and Mortality 1 h / % KD and Mortality 2 h / % KD and Mortality 3 h / % KD and Mortality 4 h / % KD and Mortality 6 h / % KD and Mortality 24 h: Table 114, EC formulation, continuous exposure
Description: A flat fan nozzle (type SS 8003-E) in a spray cabin was moved automatically over a defined area where the solutions were sprayed very evenly onto the surfaces. The formulation was mixed with water to give a concentration which corresponded to the desired quantity of a.i./m^2. A defined quantity of this solution was sprayed onto the area (nominal 350 liter/ha=0.77 ml per surface).
All surfaces were provided with talcum-coated glass rings (diameter 9.5 cm, height 5.5 cm) one day later.
The test insects were anesthetized with CO2, 20 individuals were placed onto the treated surfaces and the glass ring was covered with wire gauze ring.
Knock down was determined after 15 and 30′, 1, 2, 4 and 6 hours, mortality after 1 day exposure.
Each test consisted of at least one replicate and any additional replicates are noted.
Test Insects: House flies (Musca domestica) of both sexes, susceptible strain WHO(N) and resistant strain Reichswald
Evaluation: Mortality was evaluated cumulatively at different times. […]
Test Insects: Culex quinquefasciatus (adults) (3 minutes exposure time according to USDA Petri Dish Method), Musca domestica (adults), susceptible and resistant strain, Blattella germanica (males), Cimex lectularius (adults) (all: continuous exposure time)
Application: The EC formulation (diluted with water 1:9) were applied as 0.85 ml solutions onto glazed tiles (15 cm×15 cm)
Evaluation: Knock down after 15, and 30 minutes, 1, 2, 3, 4, 6 and 24 hours (mortality)
Test Insects: Culex quinquefasciatus (adults, susceptible) (3 minutes exposure time according to USDA Petri Dish Method), Musca domestica (adults, susceptible and resistant), Blattella germanica (males, susceptible) (both: continuous exposure time)
Formulations: Insecticide with or without 10% Compound A (as EC), to be diluted with water (1 part formulation+9 parts water)
Evaluation: Knock down after 3, 9 (mosquitoes only), 15, and 30 minutes, 1, 2, 3, 4 and 24 hours (mortality) […]

[3] = test system: ants (persistent ant trails); experiment: Ant control field trial (ant trail counts after barrier spray); type: in vivo
Excerpt: The purpose of this example was to consider whether combinations of imidacloprid and adjuvant, believed acting as free radical stabilizers, is effective at controlling ant populations. The general methodology used in this analysis first involved locating a site with persistent ant trails; e.g., trails over surfaces of buildings, at structural guidelines (expansion joints, utility lines, and the like), or points where ants emerge from beneath or behind a structural element. A point of observation was fixed along the trail or point of emergence as the individual plot(s) for observations of the effects of treatment on ant activity. The near environment (structural substrate, mulch beds, ground, and the like) was sprayed to form a continuous barrier that intercepts the trailing ants in a barrier ca. 2 ft up and 2 ft out from foundation wall, and extending 2 to 3 feet on either side of the ant trail. After treatment, the observers returned to observe ant activity and count ant traffic at intervals after treatment. The evaluations were continued until the control failed, or as long as was practical. All formulations were diluted in water before treatment. Application rates, in terms of mg AI per sq. m., were as indicated in the tables. deltamethrin served as a positive control. All treatments were replicated in four plots.

[4] = test system: Red Imported Fire ant (RIFA), Solenopsis invicta; experiment: Knockdown/mortality of ant workers under continuous exposure on treated glazed tile; type: in vivo
Excerpt: Treatments were allowed to dry overnight. […] Treatments were replicated minimum three times.
Treatments were allowed to dry overnight. […] Treatments were replicated a minimum of three times.

[5] = test system: housefly, Musca domestica; experiment: Housefly continuous exposure on treated glazed tile (paper cup arena); type: in vivo
Excerpt: Treatments were allowed to dry overnight. The housefly testing arena consisted of a 16 oz. paper cup where the bottom of the cup was removed and replaced with a piece of standard window screen. Ten adult houseflies (mixed ratio) were placed in each cup and covered with a 4″×5″ index card to prevent escape. Houseflies were continuously exposed to the treatment by inverting the testing arena and sliding the cup from the index card to the treated tile surface. Treatments were replicated a minimum of three times.

[6] = 0.1% = 50 mg Bendiocarb/m^2 on glazed tiles
[7] = 0.1% = 50 mg imidacloprid/m^2 on glazed tiles
[8] = Table 52, fipronil/adjuvant in acetone, glazed tile
[9] = Table 60, Red Imported Fire ant, glazed tile, continuous exposure
[10] = 0.02% = 10 mg Ethiprole/m^2 on glazed tiles
[11] = 0.001% deltamethrin in acetone on glazed tiles, with or without adjuvant

CNC(=O)Oc1cccc2c1OC(C)(C)O2 [bendiocarb]
Likelihood of Direct Insect Cuticular Penetration [1]: Slow (classified as “SLOW” when the compound has a Log P value of about <2.0)
% KD and Mortality 15′ [2, 6]: 25%
% KD and Mortality 30′ [2, 6]: 65%
% KD and Mortality 1 h [2, 6]: 85%
% KD and Mortality 2 h [2, 6]: 85%
% KD and Mortality 3 h [2, 6]: 85%
% KD and Mortality 4 h [2, 6]: 85%
% KD and Mortality 6 h [2, 6]: 85%
% KD and Mortality 24 h [2, 6]: 95%

O=[N+]([O-])NC1=NCCN1Cc1ccc(Cl)nc1 [imidacloprid]
Likelihood of Direct Insect Cuticular Penetration [1]: Slow (classified as “SLOW” when the compound has a Log P value of about <2.0)
reduction in ant activity, cross-trial average (relative to pretreatment counts) [3]: 34.1%
% KD and Mortality 15′ [2, 7]: 25%
% KD and Mortality 30′ [2, 7]: 55%
% KD and Mortality 1 h [2, 7]: 40%
% KD and Mortality 2 h [2, 7]: 95%
% KD and Mortality 3 h [2, 7]: 95%
% KD and Mortality 4 h [2, 7]: 95%
% KD and Mortality 6 h [2, 7]: 95%
% KD and Mortality 24 h [2, 7]: 100%

N#Cc1nn(-c2c(Cl)cc(C(F)(F)F)cc2Cl)c(N)c1[S+]([O-])C(F)(F)F (centres unmarked) [Fipronil (.01%)]
Average % Mortality after 30 min [4, 8]: 0%
Average % Mortality after 60 min [4, 8]: 0%
Average % Mortality after 2 hr [4, 8]: 0%
Average % Mortality after 3 hr [4, 8]: 0%
Average % Mortality after 24 hr [4, 8]: 100%

N#Cc1nn(-c2c(Cl)cc(C(F)(F)F)cc2Cl)c(N)c1[S+]([O-])C(F)(F)F (centres unmarked) [Fipronil (.001%)]
Average % Mortality after 30 min [4, 8]: 0%
Average % Mortality after 60 min [4, 8]: 0%
Average % Mortality after 2 hr [4, 8]: 0%
Average % Mortality after 3 hr [4, 8]: 25%
Average % Mortality after 24 hr [4, 8]: 100%

CC[S+]([O-])c1c(C#N)nn(-c2c(Cl)cc(C(F)(F)F)cc2Cl)c1N (centres unmarked) [Ethiprole (1%)]
Average % Mortality after 1 hr ([4]; Table 60, Red Imported Fire ant, glazed tile, continuous exposure, 1 hr): 0%
Average % Mortality after 1.5 hr ([4]; Table 60, Red Imported Fire ant, glazed tile, continuous exposure, 1.5 hr): 0%
Average % Mortality after 2 hr [4, 9]: 0%
Average % Mortality after 3 hr [4, 9]: 10%
Average % Mortality after 30 min ([4]; Table 60, Red Imported Fire ant, glazed tile, continuous exposure, adjuvant = Compound A 1% + Compound B 0.5%): 0%
Average % Knockdown & Mortality after 3 hr ([5]; Table 58, housefly, glazed tile, continuous exposure, 3 hr): 0%
Average % Knockdown & Mortality after 5 hr ([5]; Table 58, housefly, glazed tile, continuous exposure, 5 hr): 0%
Average % Knockdown & Mortality after 7 hr ([5]; Table 58, housefly, glazed tile, continuous exposure, 7 hr): 3%
Average % Knockdown & Mortality after 24 hr ([5]; Table 58, housefly, glazed tile, continuous exposure, 24 hr): 97%
Average % Knockdown & Mortality after 1 hr ([5]; Table 58, housefly, glazed tile, continuous exposure, adjuvant = Compound A 1% + Compound B 0.5%, 1 hr): 0%

CC[S+]([O-])c1c(C#N)nn(-c2c(Cl)cc(C(F)(F)F)cc2Cl)c1N (centres unmarked) [ethiprole]
mortality in 3 hours ([4]; ethiprole 0.01% in the absence of the adjuvant (FIG. 54)): < 5%
mortality after about 6 hours ([5]; ethiprole 0.01% with or without adjuvant (FIG. 52)): about 6%
Likelihood of Direct Insect Cuticular Penetration [1]: Fast (classified as “FAST” when it has a Log P value of about >4.0)
% KD and Mortality 15′ [2, 10]: 0%
% KD and Mortality 30′ [2, 10]: 0%
% KD and Mortality 1 h [2, 10]: 0%
% KD and Mortality 2 h [2, 10]: 5%
% KD and Mortality 3 h [2, 10]: 15%
% KD and Mortality 4 h [2, 10]: 15%
% KD and Mortality 6 h [2, 10]: 25%
% KD and Mortality 24 h [2, 10]: 95%

CC1(C)[C@H](C(=O)O[C@H](C#N)c2cccc(Oc3ccccc3)c2)[C@@H]1C=C(Br)Br [deltamethrin]
Likelihood of Direct Insect Cuticular Penetration [1]: Fast (classified as “FAST” when it has a Log P value of about >4.0)
reduction in ant activity, cross-trial average (relative to pretreatment counts) [3]: 57.9%
% of the flies killed after 15′ ([2]; 0.001% deltamethrin in acetone on glazed tiles, with or without 1% Compound A + 0.5% Compound B): 2%
% of the flies killed after 30′ [2, 11]: 18%
% of the flies killed after 1 h [2, 11]: 58%
% of the flies killed after 2 h [2, 11]: 80%
% of the flies killed after 3 h [2, 11]: 88%
% of the flies killed after 24 h [2, 11]: 92%

CC1(C)[C@H](C(=O)O[C@H](C#N)c2cccc(Oc3ccccc3)c2)[C@@H]1C=C(Br)Br [deltamethrin (1%)]
Average % Mortality after 10 min ([4]; 10 min, Table 31, aqueous deltamethrin/adjuvant, glazed tile): 37%
Average % Mortality after 20 min ([4]; 20 min, Table 31, aqueous deltamethrin/adjuvant, glazed tile): 100%
Average % Mortality after 40 min ([4]; 40 min, Table 31, aqueous deltamethrin/adjuvant, glazed tile): 100%
Average % Mortality after 60 min ([4]; Table 31, aqueous deltamethrin/adjuvant, glazed tile): 100%
